Patent publication US10925885B2, “Thyromimetics for the treatment of fatty liver diseases” (Metabasis Therapeutics, Inc., priority 2005, dated 2021)
“Also recorded” adds a separate entry of the source.

Assays:
liver TG = conditions: thyroxine treatment, cited from earlier work
[1] = Body weight change, chronic exposure in normal rats; format: in vivo, rats (Sprague-Dawley); conditions: 1 mg/kg/day continuous infusion; for Body Weight (% change from start): normal Sprague-Dawley rats, subcutaneous osmotic pump, one week; for Effect on body weight, in words: normal rats
Protocol: (§1) Methods: Normal rats (Sprague-Dawley) were maintained on a standard diet. Compounds 7, 17, 6, TRIAC or T3 were administered by continuous infusion using an osmotic pump (Alzet; subcutaneous implant) at a dose of 1 mg/kg/day. The compounds were dissolved in 0.1N NaOH solution and the pH adjusted to 7.4-8.0. The compounds were brought up to an appropriate volume using PBS and BSA to maintain solubility within the pump. The compounds were chemically stable in the excipient at 37° C. for 7 days. Body weights were measured and the change from the starting body weight was calculated. The 4.5% reported for the vehicle animals represent a 4.5% increase in body weight over the course of the experiment.

mGPDH = test: Liver mGPDH activity in isolated mitochondria, normal rats; format: in vivo; conditions: normal Sprague-Dawley rats, 1 mg/kg/day continuous infusion, subcutaneous osmotic pump
Protocol: as §1
(§2) Sections of liver were removed and frozen. Liver triglycerides were analyzed following lipid extraction by the Bligh Dyer method (Bligh and Dyer, Can. J. Med. Sci. 37(8):911-7 (1959), incorporated herein by reference). Total triglycerides were analyzed in the liver extracts by an enzymatic assay (Thermo Electron Corporation). Total lipid was normalized to initial liver weight and triglyceride content was normalized to liver weight mGPDH activity was analyzed in isolated mitochondria using 2-(4-iodophenyl)-3-(4-nitrophenyl)-5-phenyl tetrazolium chloride as the terminal electron acceptor (Gardner R S, Analytical Biochemistry 59:272 (1974)). Commercially available GPDH was used in each assay as a standard (Sigma, St. Louis, Mo.).

liver triglycerides [2] = test: Liver triglycerides, chronic exposure in normal rats; format: in vivo, rats (Sprague-Dawley); conditions: 1 mg/kg/day continuous infusion; for Triglycerides (mg/g liver): normal Sprague-Dawley rats, subcutaneous osmotic pump, one week; for Effect on liver (hepatic) triglyceride content, in words: normal rats, systemic administration
Source text: The purpose of these studies was to compare the difference in efficacy to clear liver triglyceride content between T3 and various T3 mimetics that are carboxylic acids and T3 mimetics that are phosphonic acids. In one example, T3 and Compounds 7 and 17, which differ only in that for Compound 7, the X moiety of Formula II is —P(O)OH2 and for Compound 17, X is —C(O)OH, were compared. In the same example TRIAC and Compound 6, which differ only in that for Compound 6, X is —P(O)OH2 and for TRIAC, X is —C(O)OH, were compared. Efficacy was measured by analyzing total liver triglycerides.
as §1, §2

hepatic steatosis [3] = test: Liver steatosis (H&E sections) in ZDF rats; format: in vivo, Zucker diabetic fatty (ZDF) rats; conditions: oral, CMC suspension
Protocol: Methods: ZDF rats were maintained on a standard diet (5008). Compounds cis-13-1 or 18 were administered orally at the indicated doses using a CMC suspension. Liver steatosis was analyzed visually following H&E staining of paraffin embedded liver sections. TSH was measured using a rodent specific kit (Amersham Biosciences). At the end of the experiment, the left ventricle was cannulated with a high fidelity catheter-tip transducer (Millar) via the right carotid artery. Left ventricle pressure, its first derivative (LV dP/dt), lead I ECG, and heart rate triggered off the ECG waveform, were recorded.

[4] = system: thyroid-responsive genes in the liver; conditions: T3-treated vs hypothyroid mice; cited from earlier work
liver triglycerides [5] = test: Liver triglycerides, chronic exposure in ob/ob mice; format: in vivo
Protocol: as §2
The purpose of these studies was to compare the difference in efficacy to clear liver triglyceride content between Compound cis-13-1 and T3 in ob/ob mice.
(§3) Methods: ob/ob mice were maintained on a standard diet. Compound cis-13-1 was administered at doses of 3, 10 and 30 mg/kg/d orally in a CMC suspension. T3, 100 nmole/kg/d, was administered as an aqueous solution subcutaneously. Liver triglycerides were analyzed as described in example A. Epididymal fat pads were removed and weighed. Clinical chemistry analysis was performed by LabCorp (San Diego, Calif.).

hepatic steatosis [6] = test: Hepatic steatosis measured chemically and histologically in ob/ob mice; format: in vivo; conditions: oral administration of cis-13-1
Protocol: as §3

[7] = Epididymal fat pad weight in ob/ob mice; format: in vivo
Protocol: as §3

[8] = T3 100 nmole/kg/d subcutaneously

N[C@@H](Cc1cc(I)c(Oc2cc(I)c(O)c(I)c2)c(I)c1)C(=O)O [thyroxine, 3,3′,5,5′-tetraiodothyronine]
Decrease of liver TG (liver TG; after one week): 5 fold | Rebound of liver TG (liver TG; by the end of five weeks): 4 fold

O=P(O)(O)Cc1cc(I)c(Oc2ccc(O)c(I)c2)c(I)c1 [Compound 6]
Body Weight (% change from start) [1]: 8.7 ± 0.8 % change from start | Effect on body weight, in words [1]: did not decrease body weight | Liver mGPDH activity (% vehicle) (mGPDH): 291 ± 37 % vehicle | Triglycerides (mg/g liver) (liver triglycerides [2]): 1.3 ± 0.2 mg/g liver | Effect on liver (hepatic) triglyceride content, in words (liver triglycerides [2]): significant decrease in hepatic triglyceride content

CC(C)c1cc(Oc2c(Cl)cc(CC(=O)O)cc2Cl)ccc1O [Compound 18]
Effect on hepatic steatosis (visual, H&E), in words (hepatic steatosis [3]): visually decreased hepatic steatosis compared to control

Cc1cc(OCP(=O)(O)O)cc(C)c1Cc1ccc(O)c(C(C)C)c1 [Compound 7]
Body Weight (% change from start) [1]: 9.1 ± 1.5 % change from start | Effect on body weight, in words [1]: did not decrease body weight | Liver mGPDH activity (% vehicle) (mGPDH): 399 ± 40 % vehicle | Triglycerides (mg/g liver) (liver triglycerides [2]): 1.3 ± 0.4 mg/g liver | Effect on liver (hepatic) triglyceride content, in words (liver triglycerides [2]): significant decrease in hepatic triglyceride content

3,3′,5′-triiodothyronine [Compound T3]
Body Weight (% change from start) [1]: −8.2 ± 1.5 % change from start | Effect on body weight, in words ([1]; 1 mg/kg/day): decreased body weight; also recorded: loss of body weight | Liver mGPDH activity (% vehicle) (mGPDH): 406 ± 54 % vehicle | Triglycerides (mg/g liver) (liver triglycerides [2]): 3.6 ± 0.6 mg/g liver | Effect on liver (hepatic) triglyceride content, in words (liver triglycerides [2]; 1 mg/kg/day): did not demonstrate a decrease in hepatic triglyceride content; also recorded: did not significantly decrease liver triglyceride content | Fold, AM2 receptor [4]: 0.3 Fold | Fold, Actin, α cardiac [4]: 0.3 Fold | Fold, Actin, γ-enteric smooth muscle [4]: 0.3 Fold | Fold, Arylsulfatase A [4]: 0.3 Fold | Fold, B61 [4]: 2.3 Fold | Fold, Bcl-3 [4]: 2.5 Fold | Fold, C11 protein [4]: 0.3 Fold | Fold, Capping protein a-subunit [4]: 0.3 Fold | Fold, Carbonyl reductase (Cbr1) [4]: 3.3 Fold | Fold, Chromodomain-helicase-DNA binding protein CHD-1 [4]: 0.4 Fold | Fold, Cyp4a-10 [4]: 0.3 Fold | Fold, Cytoskeletal β-actin [4]: 0.3 Fold | Fold, EST [4]: 0.4 Fold | Fold, FK506-binding protein (FKBP23) [4]: 0.2 Fold | Fold, FK506-binding protein (FKBP65) [4]: 0.3 Fold | Fold, Fatty acid transport protein (FATP) [4]: 1.8 Fold | Fold, Glucose regulated protein 78 [4]: 0.3 Fold | Fold, Glucose-6-phosphatase [4]: 3.8 Fold | Fold, Glycerophosphate dehydrogenase [4]: 0.3 Fold | Fold, H-2 class I histocompatibility antigen [4]: 0.3 Fold | Fold, Inhibitory G protein of adenylate cyclase, α chain [4]: 0.3 Fold | Fold, Insulin-like growth factor binding protein 1 precursor [4]: 3.0 Fold | Fold, Kinesin-like protein (KipIp) [4]: 2.0 Fold | Fold, Lamin A [4]: 0.3 Fold | Fold, Lupus la protein homolog [4]: 0.3 Fold | Fold, Major urinary protein 2 precursor [4]: 3.9 Fold | Fold, Membrane-type matrix metalloproteinase [4]: 0.2 Fold | Fold, Mitochondrial genome [4]: 0.4 Fold | Fold, Murine vik5variant in the kinase [4]: 0.1 Fold | Fold, Myosin binding protein H (MyBP-H) [4]: 2.2 Fold | Fold, NfiB1-protein (exon 1-12) [4]: 0.3 Fold | Fold, Nuclear-encoded mitochondrial acyltransferase [4]: 0.2 Fold | Fold, PHAS-II [4]: 0.3 Fold | Fold, Protein kinase C inhibitor (mPKCl) [4]: 2.1 Fold | Fold, Protein kinase C, Θ type [4]: 0.3 Fold | Fold, Protein kinase ζ [4]: 0.5 Fold | Fold, Putative ATP-dependent RNA helicase PL10 [4]: 0.3 Fold | Fold, Putative SH3-containing protein SH3P12 [4]: 0.3 Fold | Fold, Putative transcription factor of the insulin gene [4]: 0.3 Fold | Fold, Rho-associated, coiled-coil forming protein kinase p160 [4]: 0.2 Fold | Fold, Serine/threonine kinase (Akt2) [4]: 0.3 Fold | Fold, Skeletal muscle actin [4]: 0.3 Fold | Fold, Spot 14 gene [4]: 8.8 Fold | Fold, T-complex protein 1, d subunit [4]: 0.3 Fold | Fold, TGN38B [4]: 0.3 Fold | Fold, Terminal deoxynucleotidyltransferase [4]: 0.3 Fold | Fold, Thymic stromal stimulating factor [4]: 0.3 Fold | Fold, Ubiquitin-activating enzyme E1 X [4]: 0.3 Fold | Fold, Virus-like (VL30) retrotransposon BVL-1 [4]: 0.3 Fold | Fold, ece1 (endothelin-converting enzyme) [4]: 0.2 Fold | Fold, α-2,3-Sialyltransferase [4]: 0.3 Fold | Fold, α-Adaptin [4]: 0.3 Fold | Fold, α-Globin [4]: 2.7 Fold | Fold, β-2 Adrenergic receptor [4]: 3.4 Fold | Fold, β-Galactoside α 2,6-sialyltransferase [4]: 0.3 Fold | Fold, β-Globin [4]: 2.3 Fold | Liver Trigs (liver triglycerides [5]; [8]): 86 ± 5 mg/g | Effect on liver (hepatic) triglyceride content, in words (liver triglycerides [5]; cis-13-1 oral 3, 10, 30 mg/kg/d, T3 100 nmole/kg/d s.c.): did not significantly decrease liver triglyceride content | Effect on hepatic steatosis measured chemically and histologically, in words (hepatic steatosis [6]): no significant effect on hepatic steatosis | EFP weight [7, 8]: 2.0 ± 0.1 g | Effect on epididymal fat pad (EFP) weight, in words ([7]; cis-13-1 oral, T3 100 nmole/kg/d s.c.): significantly decreased EFP weight; also recorded: significantly decreased epididymal fat pad weight

Cc1cc(OCC(=O)O)cc(C)c1Cc1ccc(O)c(C(C)C)c1 [Compound 17]
Body Weight (% change from start) [1]: −5.4 ± 1.0 % change from start | Effect on body weight, in words ([1]; 1 mg/kg/day): decreased body weight | Effect on body weight, in words ([1]; listed as compound 17, 1 mg/kg/day): loss of body weight | Liver mGPDH activity (% vehicle) (mGPDH): 426 ± 45 % vehicle | Triglycerides (mg/g liver) (liver triglycerides [2]): 1.8 ± 0.3 mg/g liver | Effect on liver (hepatic) triglyceride content, in words (liver triglycerides [2]): significant decrease in hepatic triglyceride content

O=C(O)Cc1cc(I)c(Oc2ccc(O)c(I)c2)c(I)c1 [TRIAC]
Body Weight (% change from start) [1]: −1.7 ± 0.6 % change from start | Effect on body weight, in words ([1]; 1 mg/kg/day): decreased body weight; also recorded: loss of body weight | Liver mGPDH activity (% vehicle) (mGPDH): 384 ± 28 % vehicle | Triglycerides (mg/g liver) (liver triglycerides [2]): 1.5 ± 0.4 mg/g liver | Effect on liver (hepatic) triglyceride content, in words (liver triglycerides [2]): significant decrease in hepatic triglyceride content
